Reference: ChEMBL document CHEMBL1150595, “Isolation and structure elucidation of radical scavengers from Thymus vulgaris leaves” (J Nat Prod, 2002)
Activity calls are given as the source filed them. No cut-off for these calls is given here.

Legend:
[1] = test system: Radical scavenging activity; experiment: Antioxidant activity assessed as DPPH radical scavenging activity at drug-DPPH molar ratio of 1:2 after 15 mins; type: functional
[2] = ABTS radical scavenging activity assessed as Trolox equivalent antioxidant capacity after 1 min; type: physicochemical
[3] = ABTS radical scavenging activity assessed as Trolox equivalent antioxidant capacity after 6 mins; type: physicochemical; conditions: 0.1 h
[4] = test system: Radical scavenging activity; experiment: Antioxidant activity assessed as DPPH radical scavenging activity after 1 min; type: functional
[5] = test system: Radical scavenging activity; experiment: Antioxidant activity assessed as DPPH radical scavenging activity after 3 mins; type: functional

| Ratio [2] | Ratio [3] | SMILES | inhibition [1] | inhibition [4] | Activity [5] |
| --- | --- | --- | --- | --- | --- |
| 1.5 | 1.54 | O=C(/C=C/c1ccc(O)c(O)c1)O[C@H](Cc1ccc(O)c(O)c1)C(=O)O [ROSMARINIC ACID] | 95% | 43% | – |
| 0.58 | 0.69 | O=C(/C=C/c1ccc(O)c(O/C(=C\c2ccc(O)c(O)c2)C(=O)O)c1)O[C@H](Cc1ccc(O)c(O)c1)C(=O)O | 96% | 70% | Active |
